Columns and labels:
Experiment in all cases: radiometric filter-binding kinase assay, Kinase HotSpot
Details in all cases: compound 0.5 µM; ATP 10 µM
[1] = molecular target: RET (human) (UniProt P07949)
[2] = molecular target: EPHB1 (human) (UniProt P54762)
[3] = molecular target: PLK1 (human) (UniProt P53350)
[4] = molecular target: RIPK2 (human) (UniProt O43353)
[5] = molecular target: CDK9 CCNT1 (human) (UniProt P50750+O60563)
[6] = molecular target: AURKB (human) (UniProt Q96GD4)
[7] = molecular target: OXSR1 (human) (UniProt O95747)
[8] = molecular target: AXL (human) (UniProt P30530)
[9] = molecular target: CSNK1G3 (human) (UniProt Q9Y6M4)
[10] = molecular target: PAK4 (human) (UniProt O96013)
[11] = molecular target: MAPK13 (human) (UniProt O15264)
[12] = molecular target: MARK1 (human) (UniProt Q9P0L2)
[13] = molecular target: EPHA4 (human) (UniProt P54764)
[14] = molecular target: DYRK3 (human) (UniProt O43781)
[15] = molecular target: MAP3K10 (human) (UniProt Q02779)
[16] = molecular target: PAK1 (human) (UniProt Q13153)
[17] = molecular target: MAPK8 (human) (UniProt P45983)
[18] = molecular target: PIM2 (human) (UniProt Q9P1W9)
[19] = molecular target: PRKCB1 (human) (UniProt P05771)
[20] = molecular target: PRKCZ (human) (UniProt Q05513)
[21] = molecular target: MAPKAPK5 (human) (UniProt Q8IW41)
[22] = molecular target: STK24 (human) (UniProt Q9Y6E0)
[23] = molecular target: MST4 (human) (UniProt Q9P289)
[24] = molecular target: IRAK1 (human) (UniProt P51617)
[25] = molecular target: MINK1 (human) (UniProt Q8N4C8)
[26] = molecular target: PDPK1 (human) (UniProt O15530)
[27] = molecular target: CSNK1A1 (human) (UniProt P48729)
[28] = molecular target: SRMS (human) (UniProt Q9H3Y6)
[29] = molecular target: PHKG2 (human) (UniProt P15735)
[30] = molecular target: STK11 (human) (UniProt Q15831)
[31] = molecular target: CAMK4 (human) (UniProt Q16566)
[32] = molecular target: PDGFRA (human) (UniProt P16234)
[33] = molecular target: ERBB2 (human) (UniProt P04626)
[34] = molecular target: NEK7 (human) (UniProt Q8TDX7)
[35] = molecular target: AKT2 (human) (UniProt P31751)
[36] = molecular target: FER (human) (UniProt P16591)
[37] = molecular target: JAK1 JH1 catalytic (human) (UniProt P23458)
[38] = molecular target: HIPK1 (human) (UniProt Q86Z02)
[39] = molecular target: HIPK3 (human) (UniProt Q9H422)
[40] = molecular target: CDK1 CCNA2 (human) (UniProt P06493+P20248)
[41] = molecular target: PLK2 (human) (UniProt Q9NYY3)
[42] = molecular target: JAK3 JH1 JH2 (human) (UniProt P52333)

Chain of HIPK3 (human) (Q9H422 whole entry, looked up): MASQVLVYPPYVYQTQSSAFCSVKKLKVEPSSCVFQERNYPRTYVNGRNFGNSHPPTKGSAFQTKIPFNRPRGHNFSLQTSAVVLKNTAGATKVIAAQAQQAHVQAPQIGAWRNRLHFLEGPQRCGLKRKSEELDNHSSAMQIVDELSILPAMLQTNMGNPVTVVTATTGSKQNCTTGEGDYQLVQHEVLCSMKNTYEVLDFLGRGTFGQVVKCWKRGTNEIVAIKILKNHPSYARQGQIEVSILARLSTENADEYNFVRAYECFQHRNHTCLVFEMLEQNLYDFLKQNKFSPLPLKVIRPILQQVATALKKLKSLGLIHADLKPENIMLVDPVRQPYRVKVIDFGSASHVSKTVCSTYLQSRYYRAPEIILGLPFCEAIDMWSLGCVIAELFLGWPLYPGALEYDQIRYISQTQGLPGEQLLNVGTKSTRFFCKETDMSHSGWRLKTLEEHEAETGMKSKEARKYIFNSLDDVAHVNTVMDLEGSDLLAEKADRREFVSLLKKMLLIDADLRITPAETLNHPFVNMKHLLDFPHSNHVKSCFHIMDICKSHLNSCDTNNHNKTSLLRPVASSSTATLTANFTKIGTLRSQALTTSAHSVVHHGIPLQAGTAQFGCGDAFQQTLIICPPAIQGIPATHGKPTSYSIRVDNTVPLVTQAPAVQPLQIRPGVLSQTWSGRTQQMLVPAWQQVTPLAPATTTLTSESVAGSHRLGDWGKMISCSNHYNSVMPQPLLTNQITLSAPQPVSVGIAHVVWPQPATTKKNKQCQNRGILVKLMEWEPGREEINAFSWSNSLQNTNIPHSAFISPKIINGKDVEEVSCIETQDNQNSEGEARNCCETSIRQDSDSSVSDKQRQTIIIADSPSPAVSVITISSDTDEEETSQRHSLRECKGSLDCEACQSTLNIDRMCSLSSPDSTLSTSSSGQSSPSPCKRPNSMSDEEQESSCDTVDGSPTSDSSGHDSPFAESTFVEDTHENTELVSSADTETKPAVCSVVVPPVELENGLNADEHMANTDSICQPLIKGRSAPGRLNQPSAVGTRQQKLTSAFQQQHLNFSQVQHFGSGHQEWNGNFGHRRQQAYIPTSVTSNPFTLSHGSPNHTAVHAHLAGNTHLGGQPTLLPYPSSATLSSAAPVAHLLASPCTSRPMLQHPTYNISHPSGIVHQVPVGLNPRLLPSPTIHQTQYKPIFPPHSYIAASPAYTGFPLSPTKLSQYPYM
Chain of PRKCZ (human) (Q05513 whole entry, looked up): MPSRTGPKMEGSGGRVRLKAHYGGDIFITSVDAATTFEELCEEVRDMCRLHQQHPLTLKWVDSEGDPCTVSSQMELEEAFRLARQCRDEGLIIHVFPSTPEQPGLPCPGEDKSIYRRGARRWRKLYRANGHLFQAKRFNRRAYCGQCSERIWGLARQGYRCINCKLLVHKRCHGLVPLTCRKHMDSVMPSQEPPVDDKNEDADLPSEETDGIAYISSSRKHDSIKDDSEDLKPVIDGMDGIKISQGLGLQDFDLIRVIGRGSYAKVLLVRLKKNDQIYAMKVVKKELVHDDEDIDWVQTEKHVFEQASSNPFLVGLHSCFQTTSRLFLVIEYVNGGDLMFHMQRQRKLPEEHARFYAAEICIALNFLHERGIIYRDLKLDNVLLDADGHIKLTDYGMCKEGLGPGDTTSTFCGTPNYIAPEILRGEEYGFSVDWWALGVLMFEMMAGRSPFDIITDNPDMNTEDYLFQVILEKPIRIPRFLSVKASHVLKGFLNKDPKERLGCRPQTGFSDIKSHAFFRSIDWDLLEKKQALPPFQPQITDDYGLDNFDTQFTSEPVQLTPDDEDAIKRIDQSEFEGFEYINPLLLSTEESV
Chain of OXSR1 (human) (O95747 whole entry, looked up): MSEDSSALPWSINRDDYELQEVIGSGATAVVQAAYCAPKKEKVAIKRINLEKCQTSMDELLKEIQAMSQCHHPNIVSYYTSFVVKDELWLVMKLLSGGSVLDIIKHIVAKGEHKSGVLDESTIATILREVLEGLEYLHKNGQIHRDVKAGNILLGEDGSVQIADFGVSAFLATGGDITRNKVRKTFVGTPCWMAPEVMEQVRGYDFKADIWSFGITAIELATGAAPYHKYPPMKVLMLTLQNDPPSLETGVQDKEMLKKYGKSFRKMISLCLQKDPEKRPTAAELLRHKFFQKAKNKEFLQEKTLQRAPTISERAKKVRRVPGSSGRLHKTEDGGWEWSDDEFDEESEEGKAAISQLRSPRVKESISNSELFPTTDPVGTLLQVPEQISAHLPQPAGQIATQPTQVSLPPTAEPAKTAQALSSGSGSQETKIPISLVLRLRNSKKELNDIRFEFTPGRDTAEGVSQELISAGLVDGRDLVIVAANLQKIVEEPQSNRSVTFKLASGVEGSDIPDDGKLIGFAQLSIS
Chain of HIPK1 (human) (Q86Z02 whole entry, looked up): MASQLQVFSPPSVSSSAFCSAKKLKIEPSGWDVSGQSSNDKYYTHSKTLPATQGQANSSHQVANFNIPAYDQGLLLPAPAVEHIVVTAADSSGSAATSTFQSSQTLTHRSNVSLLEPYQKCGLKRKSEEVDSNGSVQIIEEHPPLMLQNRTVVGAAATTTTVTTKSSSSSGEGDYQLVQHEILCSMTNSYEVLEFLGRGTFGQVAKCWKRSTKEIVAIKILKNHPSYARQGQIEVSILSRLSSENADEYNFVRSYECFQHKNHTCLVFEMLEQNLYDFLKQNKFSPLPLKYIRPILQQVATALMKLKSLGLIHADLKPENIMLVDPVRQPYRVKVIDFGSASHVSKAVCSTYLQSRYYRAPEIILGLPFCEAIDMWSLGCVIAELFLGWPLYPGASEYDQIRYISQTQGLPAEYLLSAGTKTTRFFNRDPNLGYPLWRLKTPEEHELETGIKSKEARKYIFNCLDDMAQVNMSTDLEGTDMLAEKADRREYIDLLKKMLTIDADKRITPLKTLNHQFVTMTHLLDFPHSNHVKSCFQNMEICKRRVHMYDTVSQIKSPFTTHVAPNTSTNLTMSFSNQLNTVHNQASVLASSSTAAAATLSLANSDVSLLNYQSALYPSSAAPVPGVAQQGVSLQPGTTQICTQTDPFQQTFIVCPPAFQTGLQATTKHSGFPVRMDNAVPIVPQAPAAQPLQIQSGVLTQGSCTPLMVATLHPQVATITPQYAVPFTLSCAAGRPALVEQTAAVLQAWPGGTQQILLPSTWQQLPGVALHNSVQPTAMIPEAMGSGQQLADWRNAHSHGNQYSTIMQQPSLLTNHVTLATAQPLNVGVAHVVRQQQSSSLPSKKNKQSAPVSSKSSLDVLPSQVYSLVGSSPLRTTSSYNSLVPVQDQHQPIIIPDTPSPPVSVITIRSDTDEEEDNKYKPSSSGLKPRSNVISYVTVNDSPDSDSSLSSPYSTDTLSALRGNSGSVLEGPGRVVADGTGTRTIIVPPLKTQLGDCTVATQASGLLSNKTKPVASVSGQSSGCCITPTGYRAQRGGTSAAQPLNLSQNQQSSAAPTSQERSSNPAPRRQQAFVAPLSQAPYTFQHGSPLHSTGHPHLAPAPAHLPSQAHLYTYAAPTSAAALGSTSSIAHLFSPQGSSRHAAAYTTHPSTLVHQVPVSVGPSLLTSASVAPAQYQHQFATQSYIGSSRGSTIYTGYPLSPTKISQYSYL
Chain of STK24 (human) (Q9Y6E0 whole entry, looked up): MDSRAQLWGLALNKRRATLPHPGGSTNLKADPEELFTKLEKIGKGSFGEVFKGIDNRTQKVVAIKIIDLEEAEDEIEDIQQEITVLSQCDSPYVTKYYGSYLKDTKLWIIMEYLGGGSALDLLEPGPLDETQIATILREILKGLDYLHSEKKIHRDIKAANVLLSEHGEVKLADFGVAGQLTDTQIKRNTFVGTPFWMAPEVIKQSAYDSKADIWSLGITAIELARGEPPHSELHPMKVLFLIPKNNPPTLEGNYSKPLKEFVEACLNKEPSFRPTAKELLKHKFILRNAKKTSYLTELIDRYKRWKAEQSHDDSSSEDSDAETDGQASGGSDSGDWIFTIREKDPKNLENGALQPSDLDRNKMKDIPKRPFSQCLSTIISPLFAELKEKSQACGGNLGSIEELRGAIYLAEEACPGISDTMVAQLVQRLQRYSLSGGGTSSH
Chain of AXL (human) (P30530 whole entry, looked up): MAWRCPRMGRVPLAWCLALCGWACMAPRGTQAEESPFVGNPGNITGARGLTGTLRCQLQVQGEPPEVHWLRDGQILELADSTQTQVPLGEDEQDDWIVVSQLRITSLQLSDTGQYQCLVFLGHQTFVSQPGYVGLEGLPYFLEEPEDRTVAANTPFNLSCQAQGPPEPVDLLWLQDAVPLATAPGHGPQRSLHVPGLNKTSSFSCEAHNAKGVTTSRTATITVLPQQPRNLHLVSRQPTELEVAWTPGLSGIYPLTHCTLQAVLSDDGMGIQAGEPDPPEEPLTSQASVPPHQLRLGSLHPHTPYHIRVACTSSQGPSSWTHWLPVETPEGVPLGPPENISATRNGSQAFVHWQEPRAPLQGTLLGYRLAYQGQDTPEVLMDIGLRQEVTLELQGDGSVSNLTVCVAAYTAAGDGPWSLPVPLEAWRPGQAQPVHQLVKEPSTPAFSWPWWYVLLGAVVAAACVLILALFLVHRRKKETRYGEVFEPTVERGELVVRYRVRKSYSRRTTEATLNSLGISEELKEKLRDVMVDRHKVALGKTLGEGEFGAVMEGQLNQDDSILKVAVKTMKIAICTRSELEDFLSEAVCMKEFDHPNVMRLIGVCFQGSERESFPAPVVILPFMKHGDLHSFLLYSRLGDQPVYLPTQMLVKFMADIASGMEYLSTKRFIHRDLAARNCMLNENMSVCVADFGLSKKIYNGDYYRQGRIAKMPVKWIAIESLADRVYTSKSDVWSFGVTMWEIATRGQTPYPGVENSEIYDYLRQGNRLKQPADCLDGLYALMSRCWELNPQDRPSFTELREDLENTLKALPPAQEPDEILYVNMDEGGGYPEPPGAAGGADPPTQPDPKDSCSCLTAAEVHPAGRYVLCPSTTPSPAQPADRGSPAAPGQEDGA

**Q.** What does the source list for O=C(Nc1cccc(Nc2cc(Nc3cccc(C(F)(F)F)c3)ncn2)c1)C1CC1?
**A.** residual activity [1]: 109%; residual activity [2]: 100%; residual activity [3]: 98.6%; residual activity [4]: 80.8%; residual activity [5]: 97.2%; residual activity [6]: 98.9%; residual activity [7]: 110%; residual activity [8]: 98.7%; residual activity [9]: 107%; residual activity [10]: 103%; residual activity [11]: 106%; residual activity [12]: 102%; residual activity [13]: 96.5%; residual activity [14]: 101%; residual activity [15]: 101%; residual activity [16]: 96.6%; residual activity [17]: 93.4%; residual activity [18]: 104%; residual activity [19]: 93.2%; residual activity [20]: 104%; residual activity [21]: 101%; residual activity [22]: 97.1%; residual activity [23]: 98.9%; residual activity [24]: 111%; residual activity [25]: 95.9%; residual activity [26]: 100%; residual activity [27]: 102%; residual activity [28]: 95.2%; residual activity [29]: 101%; residual activity [30]: 100%; residual activity [31]: 98.5%; residual activity [32]: 86.4%; residual activity [33]: 82.5%; residual activity [34]: 97.8%; residual activity [35]: 103%; residual activity [36]: 102%; residual activity [37]: 103%; residual activity [38]: 99.7%; residual activity [39]: 97%; residual activity [40]: 97.9%; residual activity [41]: 109%; residual activity [42]: 106%

**Q.** For COc1ccc(CNC(=O)Nc2ncc([N+](=O)[O-])s2)cc1, which residual activity [1] is on record?
**A.** 97.9%

**Q.** And the residual activity [2]?
**A.** 102%

**Q.** And the residual activity [3]?
**A.** 102%

**Q.** And the residual activity [4]?
**A.** 82.8%

**Q.** And the residual activity [5]?
**A.** 88.1%

**Q.** What about the residual activity [6] of the same compound?
**A.** 97.1%

**Q.** And the residual activity [7]?
**A.** 95.9%

**Q.** What about the residual activity [8] of the same compound?
**A.** 92%

**Q.** What about the residual activity [9] of the same compound?
**A.** 90.4%

**Q.** What about the residual activity [10] of the same compound?
**A.** 115%

**Q.** What about the residual activity [11] of the same compound?
**A.** 91.1%

**Q.** What about the residual activity [12] of the same compound?
**A.** 106%

**Q.** What about the residual activity [13] of the same compound?
**A.** 101%

**Q.** And the residual activity [14]?
**A.** 105%

**Q.** And the residual activity [15]?
**A.** 97.9%

**Q.** What about the residual activity [16] of the same compound?
**A.** 94.2%

**Q.** What about the residual activity [17] of the same compound?
**A.** 104%

**Q.** And the residual activity [18]?
**A.** 94.5%

**Q.** What about the residual activity [19] of the same compound?
**A.** 103%

**Q.** And the residual activity [20]?
**A.** 96.3%

**Q.** And the residual activity [21]?
**A.** 90.1%

**Q.** And the residual activity [22]?
**A.** 93.6%

**Q.** And the residual activity [23]?
**A.** 113%

**Q.** What about the residual activity [24] of the same compound?
**A.** 108%

**Q.** What about the residual activity [25] of the same compound?
**A.** 90.5%

**Q.** And the residual activity [26]?
**A.** 90%

**Q.** And the residual activity [27]?
**A.** 92.4%

**Q.** What about the residual activity [28] of the same compound?
**A.** 93.3%

**Q.** What about the residual activity [29] of the same compound?
**A.** 105%

**Q.** And the residual activity [30]?
**A.** 100%

**Q.** What about the residual activity [31] of the same compound?
**A.** 96.7%

**Q.** What about the residual activity [32] of the same compound?
**A.** 93%

**Q.** What about the residual activity [33] of the same compound?
**A.** 96.9%

**Q.** And the residual activity [34]?
**A.** 99.4%

**Q.** What about the residual activity [35] of the same compound?
**A.** 103%

**Q.** What about the residual activity [36] of the same compound?
**A.** 101%

**Q.** And the residual activity [37]?
**A.** 94.2%

**Q.** What about the residual activity [38] of the same compound?
**A.** 100%

**Q.** What about the residual activity [39] of the same compound?
**A.** 91.9%

**Q.** What about the residual activity [40] of the same compound?
**A.** 93.4%

**Q.** And the residual activity [41]?
**A.** 104%

**Q.** And the residual activity [42]?
**A.** 105%

**Q.** CCn1cnc2c(Nc3cccc(Cl)c3)nc(N[C@@H]3CCCC[C@@H]3N)nc21 was tested. Which residual activity [1] did it give?
**A.** 69.3%

**Q.** What about the residual activity [2] of the same compound?
**A.** 56.6%

**Q.** And the residual activity [3]?
**A.** 86%

**Q.** And the residual activity [4]?
**A.** 70%

**Q.** What about the residual activity [5] of the same compound?
**A.** 53.7%

**Q.** And the residual activity [6]?
**A.** 98.8%

**Q.** And the residual activity [7]?
**A.** 92.3%

**Q.** And the residual activity [8]?
**A.** 98.7%

**Q.** What about the residual activity [9] of the same compound?
**A.** 45.9%

**Q.** What about the residual activity [10] of the same compound?
**A.** 84.5%

**Q.** And the residual activity [11]?
**A.** 102%

**Q.** And the residual activity [12]?
**A.** 93.1%

**Q.** What about the residual activity [13] of the same compound?
**A.** 78.5%

**Q.** What about the residual activity [14] of the same compound?
**A.** 83.7%

**Q.** And the residual activity [15]?
**A.** 92.9%

**Q.** And the residual activity [16]?
**A.** 88.8%

**Q.** And the residual activity [17]?
**A.** 97.6%

**Q.** And the residual activity [18]?
**A.** 111%

**Q.** What about the residual activity [19] of the same compound?
**A.** 106%

**Q.** And the residual activity [20]?
**A.** 106%

**Q.** And the residual activity [21]?
**A.** 98.3%

**Q.** What about the residual activity [22] of the same compound?
**A.** 79%

**Q.** And the residual activity [23]?
**A.** 104%

**Q.** What about the residual activity [24] of the same compound?
**A.** 81.7%

**Q.** What about the residual activity [25] of the same compound?
**A.** 95.2%

**Q.** What about the residual activity [26] of the same compound?
**A.** 94.8%

**Q.** And the residual activity [27]?
**A.** 98.7%

**Q.** What about the residual activity [28] of the same compound?
**A.** 85.9%

**Q.** What about the residual activity [29] of the same compound?
**A.** 85.6%

**Q.** What about the residual activity [30] of the same compound?
**A.** 78%

**Q.** And the residual activity [31]?
**A.** 103%

**Q.** And the residual activity [32]?
**A.** 100%

**Q.** And the residual activity [33]?
**A.** 95.6%

**Q.** What about the residual activity [34] of the same compound?
**A.** 86%

**Q.** And the residual activity [35]?
**A.** 108%

**Q.** And the residual activity [36]?
**A.** 86.8%

**Q.** What about the residual activity [37] of the same compound?
**A.** 98.6%

**Q.** And the residual activity [38]?
**A.** 97.5%

**Q.** And the residual activity [39]?
**A.** 102%

**Q.** And the residual activity [40]?
**A.** 60.7%

**Q.** What about the residual activity [41] of the same compound?
**A.** 95.8%

**Q.** What about the residual activity [42] of the same compound?
**A.** 99.6%

**Q.** Which results are given for CCN(CC)CCCCN1c2ccccc2Oc2ccc(Cl)cc21?
**A.** residual activity [1]: 96.3%; residual activity [2]: 110%; residual activity [3]: 109%; residual activity [4]: 89.7%; residual activity [5]: 101%; residual activity [6]: 94.1%; residual activity [7]: 89.8%; residual activity [8]: 95.2%; residual activity [9]: 78.3%; residual activity [10]: 104%; residual activity [11]: 94.3%; residual activity [12]: 100%; residual activity [13]: 91.9%; residual activity [14]: 99%; residual activity [15]: 102%; residual activity [16]: 87.7%; residual activity [17]: 89.7%; residual activity [18]: 109%; residual activity [19]: 101%; residual activity [20]: 105%; residual activity [21]: 95.9%; residual activity [22]: 90%; residual activity [23]: 98%; residual activity [24]: 118%; residual activity [25]: 111%; residual activity [26]: 111%; residual activity [27]: 96.1%; residual activity [28]: 105%; residual activity [29]: 110%; residual activity [30]: 94.4%; residual activity [31]: 98.9%; residual activity [32]: 102%; residual activity [33]: 96.6%; residual activity [34]: 89.7%; residual activity [35]: 101%; residual activity [36]: 102%; residual activity [37]: 105%; residual activity [38]: 106%; residual activity [39]: 94.2%; residual activity [40]: 99.3%; residual activity [41]: 103%; residual activity [42]: 106%
